Test results as given in article PMC6309140, “Synthesis and Evaluation of a New Type of Small Molecule Epigenetic Modulator Containing Imidazo[1,2-b][1,2,4]triazole Motif” (Frontiers in Chemistry, 2018).
Like-named read-outs stand apart in the source and are kept apart here.

Legend:
HEK 293 F cells = test: Viability assays (CellTiter-Glo, ATP); type: cell-based; conditions: viable cells by ATP quantitation, 3 days incubation, Figure 2 says B2-17 cells, method says HEK 293 F cells, read-out: IC50 (relative half maximal growth inhibitory concentration)
From the text: (§1) To identify novel small molecules targeting gene repression, we devised an image-based high-throughput screening system using the engineered HEK 293 F cell (termed as B2-17 cells) as report cell line. A chemical library containing 308,251 small molecules was screened in this system. Purposed for unbiased compound screening, this library had been used in a variety of studies (Sun et al., [2012]; Wang et al., [2013]; Dong et al., [2015]; Li et al., [2016]). Hundred and fifty eight compounds which reactivated reporter genes in more than half of cells were selected as hits. Next, we performed titration experiments for all these hits in the B2-17 cell line. The efficacy of each compound was evaluated by its maximal percentage of EGFP^+ cells in the dose-response curve (maximal RGFP) and relative half maximal effect concentration (EC50). The toxicity of the hits was also tested in parallel, measured by number of viable cells in each treatment. The assay is based on quantitative analysis of ATP, an indicator of metabolically active cells. For each compound, we calculated the relative half maximal growth inhibitory concentration (IC50), based on the abovementioned assay.
HEK 293 F cells were plated in 384-well, flat-bottom, tissue culture dishes (Corning) and treated with compounds, incubated 3 days, and assayed for viability using the CellTiter-Glo Luminescent Cell Viability Assay (Promega) according to the manufacturer's protocol. The […] with an EnSight plate reader (Perkin Elmer). Data were normalized to the untreated control (100% viability). Each treatment was tested in two independent assays, each containing 3 replicates. The titration-viability curves of each compound were also generated by using Origin 6.0 Pro software.

[1] = tested on: EGFP reporter gene silenced by DNA methylation (B2-17 cells); test: Compound effective assay: derepression of EGFP reporter in B2-17 reporter cells (image-based, titration); type: cell-based; conditions: for Emax: 72 h, read-out: Maximal RGFP% (maximal percentage of EGFP+ cells in the dose-response curve); for EC50: dose-response of EGFP+ cells, read-out: EC50 (relative half maximal effect concentration); for activity of derepressing the EGFP reporter gene silenced by DNA methylation (in words): compared with hit compound LX-3
From the text: as §1
Procedure for cell culture and establishment of the reporter cell line were reported in our previously published paper (Li et al., [2018]).
Before plating cells, 384-well plates (ViewPlate, PerkinElmer) were coated with PDL (poly-D-lysine, Sigma). For each well, 1,300 B2-17 cells were plated by using a Matrix Wellmate microplate dispenser (Thermo Scientific). Then, 0.25 μL of compound was added to each well by using a versatile pipetting robot, the Biomek FX workstation (Beckman Coulter), to give a final compound concentration of 5 μM. After treatment for 72 h, the cell nuclei were stained by Hoechst 33342 (Sigma) before imaging.
The cells were imaged with Opera LX (PerkinElmer, three views per well by using 10 x (air) objective lens). Images were analyzed with the Columbus system, the mean percentage of EGFP+ cells (RGFP) was obtained to extrapolate the number of EGFP expressing cells and Hoechst-stained nuclei.
For the titration assay, the positive compounds were diluted in DMSO at concentrations ranging from 0.625 to 4 mM. Then, the B2-17 cells were treated by gradient compound and imaged as described before.
For each compound, a dose-response series was generated by using Origin 6.0 Pro software. The dot plot was fit by a DoseResp curve and then the EC50 was calculated.

p38 MAPK pathway = tested on: p38 MAPK pathway; parameters: method as in Li et al., 2018; conditions: multiple cell types; ref Li et al., 2018; cited from earlier work

Row | Molecule | EC50 ([1]; B2-17 cells, 72 h treatment) [µM] | IC50 (HEK 293 F cells; HEK293F, 72 h) [µM] | Emax ([1]; B2-17 cells, 72 h treatment) [%] | activation of the p38 MAPK pathway (p38 MAPK pathway) | IC50 (HEK 293 F cells) [µM] | Maximal RGFP% (maximal percentage of EGFP+ cells in the dose-response curve) ([1]; B2-17 cells, 72 h treatment) [%] | activity of derepressing the EGFP reporter gene silenced by DNA methylation (in words) [1]
1 | 2-(4-bromophenyl)-1-(2-(thiazol-2-yl)-4H-benzo[4,5] imidazo[1,2-b][1,2,4]triazol-4-yl)ethan-1-one [31b] |  |  |  |  | 11.5 | 6.0 | loss of activity
2 | O=C(Cn1c2ccccc2n2nc(-c3cccs3)nc12)c1ccccc1 [7a, 1-phenyl-2-(2-(thiophen-2-yl)-4H-benzo[4,5]imidazo[1,2-b][1,2,4]triazol-4-yl)ethan-1-one] |  | 1.9 | 7 |  |  |  | lost
3 | Nc1ccc(C(=O)Cn2c3ccccc3n3nc(-c4cccs4)nc23)cc1 [7i, 1-(4-aminophenyl)-2-(2-(thiophen-2-yl)-4H-benzo[4,5]imidazo[1,2-b][1,2,4]triazol-4-yl)ethan-1-one] |  | 5.3 | 19 |  |  |  | decreased to some extent
4 | O=C(Cn1c2ccccc2n2nc(-c3cccs3)nc12)c1c(F)c(F)c(F)c(F)c1F [7g, 1-(perfluorophenyl)-2-(2-(thiophen-2-yl)-4H-benzo[4,5]imidazo[1,2-b][1,2,4]triazol-4-yl)ethan-1-one] |  | 1.1 | 10 |  |  |  | significantly decreased
5 | Cc1ccsc1-c1nc2n(CC(=O)c3ccc(Br)cc3)c3ccccc3n2n1 [22d, 1-(4-bromophenyl)-2-(2-(3-methylthiophen-2-yl)-4H-benzo[4,5]imidazo[1,2-b][1,2,4]triazol-4-yl)ethan-1-one] |  | 12.3 | 19 |  |  |  | disappeared

Now from value to molecule, other results behind:

Row | EC50 ([1]; B2-17 cells, 72 h treatment) [µM] | Molecule | IC50 (HEK 293 F cells; HEK293F, 72 h) [µM] | Emax ([1]; B2-17 cells, 72 h treatment) [%] | activation of the p38 MAPK pathway (p38 MAPK pathway) | IC50 (HEK 293 F cells) [µM] | Maximal RGFP% (maximal percentage of EGFP+ cells in the dose-response curve) ([1]; B2-17 cells, 72 h treatment) [%] | activity of derepressing the EGFP reporter gene silenced by DNA methylation (in words) [1]
6 | 2.8 | O=C(Cn1c2ccccc2n2nc(-c3cccs3)nc12)c1ccc(Br)cc1 [LX-3, 1-(4-bromophenyl)-2-(2-(thiophen-2-yl)-4H-benzo[4,5]imidazo[1,2-b][1,2,4]triazol-4-yl)ethan-1-one] | 5.1 | 79 | selectively activate the p38 MAPK pathway |  |  | 
7 | 6.2 | COc1ccc(C(=O)Cn2c3ccccc3n3nc(-c4cccs4)nc23)cc1 [7b, 1-(4-methoxyphenyl)-2-(2-(thiophen-2-yl)-4H-benzo[4,5]imidazo[1,2-b][1,2,4]triazol-4-yl)ethan-1-one] | 3.1 | 23 |  |  |  | decreased to some extent
8 | 14.9 | O=C(Cn1c2ccc(Cl)cc2n2nc(-c3cccs3)nc12)c1ccc(Br)cc1 [compound 19, 1-(4-bromophenyl)-2-(7-chloro-2-(thiophen-2-yl)-4H-benzo[4,5]imidazo[1,2-b][1,2,4]triazol-4-yl)ethan-1-one] | 14.3 | 63 |  |  |  | significantly decreased
9 | 1.9 | COc1ccc(NC(=O)c2ccco2)cc1NC(=O)c1ccc(-c2cccc([N+](=O)[O-])c2)o1 [LX-7] | 3.2 | 79 |  |  |  | 
10 | 28 | Cc1cc2c(cc1C)n1nc(-c3cccs3)nc1n2CC(=O)c1ccc(Br)cc1 [14a, 1-(4-bromophenyl)-2-(6,7-dimethyl-2-(thiophen-2-yl)-4H-benzo[4,5]imidazo[1,2-b][1,2,4]triazol-4-yl)ethan-1-one] | 3.9 | 26 |  |  |  | significantly decreased
11 | 5.8 | O=C(Cn1c2ccccc2n2nc(-c3cccs3)nc12)c1ccc(O)cc1 [7h, 1-(4-hydroxyphenyl)-2-(2-(thiophen-2-yl)-4H-benzo[4,5]imidazo[1,2-b][1,2,4]triazol-4-yl)ethan-1-one] | 16.7 | 56 |  |  |  | decreased to some extent
12 | 4.2 | Cc1cc(NC(=O)CSc2nc3ccc(Br)cc3c3nc4ccccc4n23)no1 [LX-6] | 5 | 71 |  |  |  | 
